According to US9597274B2, “Peptides and their use in the treatment of skin” (Avon Products, Inc., priority 2015, dated 2017):

Columns and labels:
[1] = test system: Human dermal fibroblast cells; assay: Pro-collagen I secretion into the media (HTRF human pro-collagen I kit) after 48 h peptide treatment; assay type: cell-based; conditions: percent change relative to vehicle control
Method: (§1) Human dermal fibroblast cells were grown in a 96 well plate in DMEM media (available from Corning, N.Y.) supplemented with 10% Fetal Bovine Serum (FBS) and L-glutamine (0.07×10^5 cells/plate). After reaching about 75% confluence, cells were transferred into DMEM media without FBS and incubated for 4-6 hours. Next, cells were treated with a peptide at 0.00001%, 0.0001%, 0.001% final concentration in DMEM media without FBS for 48 h. After treatment, the media were collected and cell viability was measured using MTT. The amount of collagen secreted was tested in the media using HTRF human pro-collagen I kit (available from Cisbio Inc., Bedford, Mass.). The amount of secreted Hyaluronic Acid (HA) was tested in the media using HA Elisa kit (available from Corgenix, Broomfield, Colo.).
(§2) The results are summarized in Table 12 below as percent change of pro-collagen I and/or HA production relative to vehicle control (peptide concentrations provided in parentheses) using the following keys: […]

[2] = test system: Human dermal fibroblast cells; assay: Secreted hyaluronic acid (HA) in the media (HA Elisa kit) after 48 h peptide treatment; assay type: cell-based; conditions: percent change relative to vehicle control
Method: as §1, §2

[3] = peptide tested at 0.00001%, 0.0001%, 0.001%, concentration not given

Substance | Increase in Pro-Collagen I Production [1, 3] | Increase in HA Production ([2]; peptide concentration 0.001%) | Increase in Pro-Collagen I Production ([1]; peptide concentration 0.001%) | Increase in HA Production [2, 3] | Increase in HA Production ([2]; peptide concentration 0.0001%)
LRLK (listed as Homo sapiens) | 0 (0: <10%) | +(0.001%) (+: 20-50%) |  |  | 
QILSKLRL (listed as Homo sapiens) |  |  | +(0.001%) (+: 10-30%) |  | 
QPED (listed as Homo sapiens) | 0 (0: <10%) |  |  | 0 (0: <20%) | 
MVV (listed as Homo sapiens) | 0 (0: <10%) |  |  |  | +(0.0001%) (+: 20-50%)
GDALQPE (listed as Homo sapiens) | 0 (0: <10%) |  |  | 0 (0: <20%) | 
LENTKRS (listed as Homo sapiens) | 0 (0: <10%) |  |  | 0 (0: <20%) | 
